Entries after “also recorded” stand apart in the source; their conditions may differ.
How the values were obtained:
[1] = tested on: PAAFs; assay: PAAFs in soft or stiff matrix: fibrotic gene expression, immunoblot, collagen secretion; format: cell-based, human
Method: Cell Culture and Reagents: Primary human pulmonary arterial adventitial fibroblast cells (PAAFs) were purchased and propagated in FGM cell culture media (Lonza). Experiments were performed at passages 3 to 6. Primary human pulmonary fibroblast cells (PFs) were purchased and propagated in FGM cell culture media (Lonza). Primary human pulmonary arterial endothelial cells (PAECs) were purchased and propagated in EGM-2 cell culture media (Lonza). Experiments were performed at passages 3 to 6. Primary human pulmonary arterial smooth muscle cells (PASMCs) were purchased and propagated in SmGM-2 cell culture media (Lonza). Experiments were performed at passages 3 to 9. HEK293T cells (American Type Culture Collection) were used and cultivated in DMEM containing 10% fetal bovine serum (FBS). Cells were propagated in coated collagen plastic (50 ug/mL) at 37° C. in a humidified 5% CO2 atmosphere. Collagen-coated hydrogel were purchased.
3D cell culture: Protocol was adapted from previously published protocol (Aragona M et al, 2013 Cell). Cells were embedded in a mixture of Growth Factor Reduced Matrigel (BD Biosciences) and Collagen-I (BD Biosciencres). Collagen-I solution was neutralized on ice with 0.1M NaOH in PBS and adjusted with 0.1N HCl to bring the pH of the solution to 7.5. The Collagen-I solution was then mixed on ice with Matrigel to obtain a final concentration of 1.2 mg/ml (soft matrices) or 3 mg/ml (stiff matrices). Cells were trypsinized, counted, resuspended in growth medium; then, 1 volume of cells was mixed with 1 volume of the ECM mix. 6-well plated were precoated with 1 ml of cellfree 50% medium/50% ECM, and left in the incubator until gelled; then, cells were seeded in drop on top of the pregelled ECM. After gelling, wells were supplemented with normal growth medium, which was changed every 2 days during the experiments.
Oligonucleotides and Transfection: Pre-miRNA oligonucleotides (pre-miR-130a, negative control pre-miR-NC1 and premiR-NC2) and custom designed tiny LNA oligonucleotides (tiny-130: 5′-[…]-3′ (SEQ ID NO: 52), and tiny-NC 5′-[…]-3′ (SEQ ID NO: 54)) were purchased from Life Technologies/Ambion and Exiqon, respectively. siRNAs for PPARγ and OCT4/POU5F1 were purchased from Santa Cruz Biotechnology. siRNA for TIMP2 was purchased from Life Technologies. On Target Plus siRNAs for YAP1, TAZ (WWTR1), LRP8 and scrambled control were purchased from ThermoScientific/Dhermacon. PAAF, PF, PAEC and PASMC were plated in collagen-coated dish (50 ug/mL) and transfected 24 h later at 70-80% confluence using pre-miRNA (5 nM), tiny-LNA (20 nM) or siRNA (25 nM) and Lipofectamine 2000 reagent (Life Technologies), according to the manufacturers' instructions. 8 hours after transfection cells were trypsinized and re-plated in the different hydrogel/3D-matrix.
Primary human pulmonary arterial adventitial fibroblast cells (PAAFs) were purchased (ScienCell Research Laboratories) and grown in FGM cell culture media (Lonza). Experiments were performed at passages 3 to 6. Primary human pulmonary arterial endothelial cells (PAECs) were grown in EGM-2 cell culture media (Lonza), and experiments were performed at passages 3 to 6. Primary human pulmonary arterial smooth muscle cells (PASMCs) were cultured in SmGM-2 cell culture media (Lonza), and experiments were performed at passages 3 to 9. HEK293T cells (American Type Culture Collection) were cultivated in DMEM containing 10% fetal bovine serum (FBS). […]

[2] = tested on: PAAFs; assay: ECM remodeling experiment (naïve PAAFs plated on remodeled ECM); format: cell-based, human
Method: After the different treatment cells were fixed with PBS/PFA 4% for 10 min and permeabilized with PBS/Triton 100×0.1% for 10 min. Then cells were incubated with anti-YAP1 (#4912; 1/100; Cell signaling) at 4° C. overnight. Secondary antibodies coupled with Alexa-594 (Life Technologies) were used at 1:500. Nuclei were counterstained with DAPI (Sigma).
Following treatment, PAAFs were plated atop soft matrices (see below) in normal growth medium supplemented with 0.5% FBS. After three days, 10 ug/mL of puromycin was added to the growth medium for 48 hours to detach the cells from the matrix. Matrices were washed 3 times (PBS). Naïve PAAFs were then plated on top of these matrices supplemented with normal growth medium 0.5% FBS or harvested for assessment of collagen crosslinking (Picrosirius Red stain). Sixteen hours later, cells were harvested for immunofluorescence experiments or RNA extraction.
(§1) Picrosirius Red stain was achieved through the use of 5 μm paraffin sections stained with 0.1% Picrosirius Red (Direct Red80, Sigma-Aldrich) and counterstained with Weigert's hematoxylin to reveal fibrillar collagen. The sections were then serially imaged using with an analyzer and polarizer oriented parallel and orthogonal to each other. Microscope conditions (lamp brightness, condenser opening, objective, zoom, exposure time, and gain parameters) were constant throughout the imaging of all samples. A minimal threshold was set on appropriate control sections for each experiment in which only the light passing through the orthogonally-oriented polarizers representing fibrous structures (i.e., excluding residual light from the black background) was included. The threshold was maintained for all images across all conditions within each experiment. The area of the transferred regions that was covered by the thresholded light was calculated and at least 10 sections/vessel per condition were averaged together (Image J software).

[3] = tested on: hypoxia-induced PH in mice; assay: Hypoxia-induced PH in mice: BAPN (prevention, rescue) or GW3965 (prevention); format: in vivo, mouse
Excerpt: Finally, we wanted to determine if ApoE activity and/or LOX-dependent vascular stiffening were essential for ECM stiffening and PH development by miR-130/301. To assess the importance of ApoE activity, we attempted to prevent PH in mice via treatment with daily dietary ingestion of the liver-X nuclear hormone receptor (LXR) agonist GW3965, a known pharmacologic inducer of ApoE (Pencheva et al., 2014), simultaneously with hypoxia (FIGS. 62A-62H and 68A-H). Alternatively, experiments were designed to either prevent or reverse hypoxia-induced PH in mice via serial treatment with a pharmacologic inhibitor of LOX (Levental et al., 2009), β-aminopropionitrile BAPN, administered either simultaneously with hypoxia exposure (“prevention”) or after disease development (“reversal”) (FIGS. 62A-62H and 68A-H). In all cases of GW3965 or BAPN treatment, collagen crosslinking (FIG. 62D, 62H, FIG. 68) was inhibited, leading to decreased indices of PH, as reflected by RVSP (FIG. 62A, 62E), right ventricular remodeling (RV/LV+S ratio; FIG. 62B, 62F) and pulmonary arteriolar muscularization (FIG. 62C, 62G). GW3965 or BAPN treatment also reversed Pparγ and Lrp8 down-regulation (FIGS. 68A-68H) as well as reduced YAP nuclear localization (FIG. 62D, 62H) and YAP activation, as reflected by decreased Ctgf (FIGS. 68A-68H). Thus, considering the convergent data regarding pharmacologic manipulation of miR-130/301, APOE, and LOX, we can conclude that the YAP-TAZ-miR-130/301 circuit and its downstream network of targets act as master regulators of ECM remodeling in PH and represent a new set of targets for tailored molecular therapy in this disease.
To determine the effects of the LXR agonist GW3965 (Sigma-Aldrich) and consequent APOE induction on PH development, as previously described (Pencheva et al., 2014), mice were exposed to normobaric hypoxia and simultaneously assigned to control chow or chow supplemented with GW3965 (Research Diets, Inc.) at doses of 100 mg of drug per kilogram of mouse per day (based on average daily intake of […] of chow).
as §1
This protocol was adapted from a previously published protocol (Hu et al.). Mouse lung was weighed, minced, and incubated in 0.5 M acetic acid at 4° C. After overnight digestion, the acetic acid-soluble and insoluble fractions were isolated by centrifugation. The soluble fraction was stored at −80° C., while the insoluble fraction was digested by overnight incubation in 6M hydrochloric acid at 85° C. Concentrations of soluble and insoluble (gelatinous) collagen fractions were determined using a Sircol Soluble Collagen Assay Kit (Biocolor) with a colorimetric reaction (measured at 550 nm) and a provided collagen reference standard curve.

[4] = tested on: pulmonary tissue and pulmonary vasculature of mice; assay: Forced expression of miR-130a in mouse lung (SU5416, intrapharyngeal mimic) with or without rosiglitazone or BAPN
Method: In the presence of SU5416 (days of injection are highlighted in red) but in the absence of hypoxia, intrapharyngeal injection of wildtype mice was performed serially 4 times at 1 week intervals with 1 nmol of miR-NC or 1 nmol of miR-130a (days of administration are in black). During this period, mice were treated daily by oral gavage with 20 mg/kg of rosiglitazone or vehicle. At day 25, echocardiography and right heart catheterization was performed followed by euthanasia and blood/tissue sampling.
Eight-week-old mice (C57Bl6) were injected with SU5416 weekly (20 mg/kg/dose; Sigma-Aldrich), accompanied by 4 intrapharyngeal injections (once by week) of 1 nmol of miR-control (pre-miR-NC) or miR-130a (pre-miR-130a) mixed in 100 uL PBS solution containing 5% Lipofectamine 2000 (Life Technologies). Three days after the last injection, right heart catheterization was performed as previously described (9), followed by harvest of lung tissue for RNA extraction or paraffin embedding, as described above. Rosiglitazone (Cayman Chemicals) was dissolved in 0.25% carboxymethyl cellulose medium viscosity aqueous solution. This rosiglitazone solution versus vehicle control was delivered daily (20 mg/kg/day) by oral gavage to mice for 3 weeks.
After physiological measurements, blood was extracted by cardiac puncture for future analyses (hematocrit, plasma extraction). By direct right ventricular puncture, the pulmonary vessels were gently flushed with 1 cc of saline to remove the majority of blood cells, prior to harvesting cardiopulmonary tissue. The heart was removed, followed by dissection and weighing of the right ventricle (RV) and of the left ventricle+septum (LV+S). Organs were then harvested for histological preparation or flash frozen in liquid N2 for subsequent homogenization and extraction of RNA and/or protein. To further process lung tissue specifically, prior to excision, lungs were flushed with PBS at constant low pressure (˜10 mmHg) via right ventricular cannulation, followed by tracheal inflation of the left lung with 10% neutral-buffered formalin (Sigma-Aldrich) at a pressure of −20 cm H2O. After excision and 16 hours of fixation in 10% neutral-buffered formalin at 25° C., lung tissues were paraffin-embedded via an ethanol-xylene dehydration series, before being sliced into 5 μm sections (Hypercenter XP System and Embedding Center, Shandon).
Lung sections (5 μm) were deparaffinized and high temperature antigen retrieval was performed followed by blocking in TBS/BSA 5%, 10% goat serum and exposure to primary antibody and biotinylated secondary antibody (Vectastain ABC kit, Vector Labs). In most cases, color development was achieved by adding streptavidin-biotinylated alkaline phosphatase complex (Vector Labs) followed by Vector Red alkaline phosphatase substrate solution (Vector Labs). Levamisole was added to block endogenous alkaline phosphatase activity (Vector Labs). Pictures were obtained using an Olympus Bx51 microscope (40× objective). Small pulmonary vessels (<100 μm diameter) present in a given tissue section (>10 vessels per section) that were not associated with bronchial airways were selected for analysis (N>5 animals per group). Intensity of staining was quantified using ImageJ software (NIH). Degree of pulmonary arteriolar muscularization was assessed in paraffin-embedded lung sections stained for α-SMA by calculation of the proportion of fully and partially muscularized peripheral (<100 μm diameter) pulmonary arterioles to total peripheral pulmonary arterioles, as previously described (29). Medial thickness was also measured in α-SMA stained vessels (<100 μm diameter) using ImageJ software (NIH) and expressed as arbitrary units. All measurements were performed blinded to condition.

[5] = rosiglitazone or BAPN on top of miR-130a

| Molecule | collagen content of conditioned media (collagen secretion) ([1]; PAAFs) | miR-130a-induced up-regulation of collagen, CTGF, and LOX ([1]; PAAFs exposed to exogenous ApoE) | collagen crosslinking of remodeled ECM ([2]; Picrosirius Red) | collagen, LOX, CTGF, and POU5F1/OCT4 in naïve cells plated on remodeled ECM ([2]; RT-qPCR) | miR-130/301 in naïve cells plated on remodeled ECM ([2]; RT-qPCR) | perivascular collagen crosslinking ([3]; Picrosirius Red) | Ctgf, collagen isoforms, and Lox in lung ([3]; RT-qPCR) | whole lung collagen content and crosslinked collagen ([3]; Sircol assay) | arteriolar muscularization ([3]; hypoxic mice) | right ventricular hypertrophy (Fulton index, RV/LV+S) ([3]; hypoxic mice) | RVSP ([3]; hypoxic mice, BAPN prevention and rescue, GW3965 100 mg/kg/day in chow) | hypoxia mediated decreases of Lrp8 and Pparγ ([3]; in situ staining) | hypoxia-mediated increases of α-SMA and YAP ([3]; in situ staining) | miR-130a-mediated changes in collagen, α-SMA, YAP staining and perivascular collagen crosslinking ([4]; BAPN 30 mg/kg/day, Picrosirius Red and in situ staining) | YAP activation and downstream PH manifestations ([4]; BAPN in miR-130-exposed mice) | Ctgf, collagen isoforms and Lox expression in lung ([4]; RT-qPCR, BAPN on top of miR-130a) | right ventricular systolic pressure (RVSP) ([4]; SU5416 mice, miR-130a 1 nmol x4, rosiglitazone 20 mg/kg daily oral or BAPN 30 mg/kg/day on top of miR-130a) | total (soluble) collagen and crosslinked (insoluble) collagen in whole lung ([4]; Sircol / biochemical analysis, BAPN on top of miR-130a) | percentage of muscularized small pulmonary arterioles [4, 5] | right ventricular remodeling, RV/(LV+S) mass ratio [4, 5] |
| --- | --- | --- | --- | --- | --- | --- | --- | --- | --- | --- | --- | --- | --- | --- | --- | --- | --- | --- | --- | --- |
| ApoE: Recombinant ApoE (PeproTech) used at 5 μM in growth media | disrupted; also recorded: reversed | resistant | reversed | negligible alterations | reversed | – | – | – | – | – | – | – | – | – | – | – | – | – | – | – |
| N#CCCN [BAPN, β-aminopropionitrile] | – | – | – | – | – | inhibited; also recorded: decreased | blunted | normalized by BAPN rescue treatment, and kept at baseline by preventative BAPN treatment; also recorded: nearly normalized by BAPN rescue treatment and largely maintained at baseline by BAPN prevention treatment | decreased; also recorded: both prevented and reversed | decreased; also recorded: both prevented and reversed | decreased; also recorded: both prevented and reversed | reversed; also recorded: either prevented or rescued | reduced; also recorded: blunted | decrease; also recorded: blunted | reversed | temper; also recorded: blunted | lessened | reversed; also recorded: decreased | lessened | lessened |
